Measured values: patent US9402846B2, “Combination of inhibitor of B-Raf and inhibitor of AKT in the treatment of cancer” (Novartis AG, priority 2009, dated 2016)

How the values were obtained:
Type in all cases: cell-based
[1] = tested on: four colon cell lines with BRAF V600E mutation; assay: Cell growth inhibition assay (Cell Titer Glo, 3 days), summary over lines; settings: Homo sapiens; span over the four colon cell lines with BRAF V600E mutation; single agent
Description: (§1) Human colon tumor lines, Colo205, DLD1, HCC2998, HCT15, HCT8, HT29, KM-12, LS1034, LS174T, NCI-H508, RKO, SW1417, SW1463, SW480, SW837 and T84, and human melanoma line A375 were from ATCC.
(§2) All cells were cultured for a minimum of 72 hours prior to cell plating. […] Cells were incubated in the presence of compounds for 3 days. ATP levels were determined by adding Cell Titer Glo® (Promega) according to the manufacturer's protocol. Briefly, Cell Titer Glo® was added each plate, incubated for 30 minutes then luminescent signal was read on the SpectraMax L plate reader with a 0.5 sec integration time.
(§3) Inhibition of cell growth was estimated after treatment with compound or combination of compounds for three days and comparing the signal to cells treated with vehicle (DMSO). Cell growth was calculated relative to vehicle (DMSO) treated control wells.
(§4) Combination effects on potency were evaluated using Combination Index (CI) which was calculated with the back-interpolated IC50 values and the mutually non-exclusive equation derived by Chou and Talalay (1): CI=Da/IC50(a)+Db/IC50(b)+(Da×Db)/(IC50(a)×IC50(b))
(§5) In general, a CI value <0.9, between 0.9 and 1.1, or >1.1 indicates synergy, additivity and antagonism, respectively. In general, the smaller the CI number, the greater is the strength of synergy.
(§6) EOHSA values are defined as increases in improvement (here, in ‘percentage points’ (ppts) difference) produced by the combination over the best single agent at its component dose level for the combination. For single agent and combination treatments, cells were exposed to compounds at a fixed-dose-ratio, and dose response curves were fit to the experimental data and analyzed using regression models. At specified total dose levels of IC50 along the dose response curve, the dose combination (corresponding to IC50) was determined for making EOHSA statistical inferences.

[2] = tested on: 12 colon lines without BRAF V600E mutation; assay: as above; settings: Homo sapiens; the other 12 colon lines without BRAF V600E mutation; single agent
Description: as §1, §2, §3, §4, §5, §6

[3] = tested on: 16R6-3; assay: Cell growth inhibition assay (Cell Titer Glo, 3 days); settings: Homo sapiens; 16R6-3, melanoma, Compound A resistant clone; BRAF_V600E, KRAS WT; mean ± std; read-out: IC50 Single Agent
Description: (§7) Human colon tumor lines, Colo205, DLD1, HCC2998, HCT15, HCT8, HT29, KM-12, LS1034, LS174T, NCI-H508, RKO, SW1417, SW1463, SW480, SW837 and T84, and human melanoma line A375 were from ATCC. A375PF11 was derived from A375, 12R5-1, 12R5-3, 12R8-1, 12R8-3, 16R5-2, 16R6-3 and 16R6-4 are single cell clones derived from mixed populations of A375PF11 cells that were selected to grow in Compound A to concentrations of 1200 and 1600 nM. All lines were cultured in RPMI 1640 medium containing 10% fetal bovine serum (FBS).
(§8) All cells were cultured for a minimum of 72 hours prior to cell plating. Cells were assayed in a 96-well tissue culture plate (NUNC 136102) of RPMI medium containing 10% FBS for all cells at 1,000 cells per well. Approximately 24 hours after plating, cells were exposed to ten, three-fold serial dilutions of compound or the combination of the two agents at a constant molar to molar ratio of 1:10 Compound A to Compound B in RPMI media containing 10% FBS. Cells were incubated in the presence of compounds for 3 days. ATP levels were determined by adding Cell Titer Glo® (Promega) according to the manufacturer's protocol. Briefly, Cell Titer Glo® was added each plate, incubated for 30 minutes then luminescent signal was read on the SpectraMax L plate reader with a 0.5 sec integration time.
(§9) Inhibition of cell growth was estimated after treatment with compound or combination of compounds for three days and comparing the signal to cells treated with vehicle (DMSO). Cell growth was calculated relative to vehicle (DMSO) treated control wells. […]

[4] = tested on: LS174T; assay: as above; settings: Homo sapiens, colon, BRAF WT, KRAS G12D, PIK3CA H1047R, mean ± std, read-out: IC50 Single Agent
Description: as §7, §8, §9

[5] = tested on: HCT8; assay: as above; settings: Homo sapiens, HCT-8; HCT8, colon; BRAF WT, KRAS G13D, PIK3CA E545K; mean ± std; read-out: IC50 Single Agent
Description: as §7, §8, §9

[6] = tested on: LS1034; assay: as above; settings: Homo sapiens, LS-1034; LS1034, colon; BRAF WT, KRAS A146T, PIK3CA WT; mean ± std; read-out: IC50 Single Agent
Description: as §7, §8, §9

[7] = tested on: T84; assay: as above; settings: Homo sapiens; T84, colon; BRAF WT, KRAS G13D, PIK3CA E542K; mean ± std; read-out: IC50 Single Agent
Description: as §7, §8, §9

[8] = tested on: 12R5-3; assay: as above; settings: Homo sapiens; 12R5-3, melanoma, Compound A resistant clone; BRAF_V600E, KRAS WT; mean ± std; read-out: IC50 Single Agent
Description: as §7, §8, §9

[9] = tested on: A375PF11; assay: as above; settings: Homo sapiens, A375P-F11, melanoma, BRAF_V600E, KRAS WT, mean ± std, read-out: IC50 Single Agent
Description: as §7, §8, §9

[10] = tested on: 12R8-3; assay: as above; settings: Homo sapiens; 12R8-3, melanoma, Compound A resistant clone; BRAF_V600E, KRAS WT; mean ± std; read-out: IC50 Single Agent
Description: as §7, §8, §9

[11] = tested on: SW480; assay: as above; settings: Homo sapiens; SW480, colon; BRAF WT, KRAS G12C, PIK3CA WT; mean ± std; read-out: IC50 Single Agent
Description: as §7, §8, §9

[12] = tested on: DLD1; assay: as above; settings: Homo sapiens, DLD-1; DLD1, colon; BRAF WT, KRAS G13D, PIK3CA E545K, D549N; mean ± std; read-out: IC50 Single Agent
Description: as §7, §8, §9

[13] = tested on: HCT15; assay: as above; settings: Homo sapiens, HCT-15; HCT15, colon; BRAF WT, KRAS G13D, PIK3CA D549N, E545K; mean ± std; read-out: IC50 Single Agent
Description: as §7, §8, §9

[14] = tested on: SW1463; assay: as above; settings: Homo sapiens; SW1463, colon; BRAF WT, KRAS G12C, PIK3CA WT; mean ± std; read-out: IC50 Single Agent
Description: as §7, §8, §9

[15] = tested on: NCI-H508; assay: as above; settings: Homo sapiens, NCl-H508, colon, BRAF G596R, KRAS WT, PIK3CA E545K, mean ± std, read-out: IC50 Single Agent
Description: as §7, §8, §9

[16] = tested on: RKO; assay: as above; settings: Homo sapiens, colon, BRAF V600E, KRAS WT, PIK3CA H1047R, mean ± std, read-out: IC50 Single Agent
Description: as §7, §8, §9

[17] = tested on: SW837; assay: as above; settings: Homo sapiens; SW837, colon; BRAF WT, KRAS G12C, PIK3CA WT; mean ± std; read-out: IC50 Single Agent
Description: as §7, §8, §9

[18] = tested on: 16R6-4; assay: as above; settings: Homo sapiens; 16R6-4, melanoma, Compound A resistant clone; BRAF_V600E, KRAS WT; mean ± std; read-out: IC50 Single Agent
Description: as §7, §8, §9

[19] = tested on: Colo205; assay: as above; settings: Homo sapiens, COLO 205; Colo205, colon; BRAF V600E, KRAS WT, PIK3CA WT; mean ± std; read-out: IC50 Single Agent
Description: as §7, §8, §9

[20] = tested on: HCC2998; assay: as above; settings: Homo sapiens, HCC 2998; HCC2998, colon; BRAF WT, KRAS A146T, PIK3CA WT; mean ± std; read-out: IC50 Single Agent
Description: as §7, §8, §9

[21] = tested on: KM-12; assay: as above; settings: Homo sapiens, KM12; KM-12, colon; BRAF WT, KRAS WT, PIK3CA WT; mean ± std; read-out: IC50 Single Agent
Description: as §7, §8, §3, §4, §5
as §6, with “The combination effects on the response scale were quantified by Excess Over Highest Single Agent (EOHSA) based on the concept of nonlinear blending as described in detail by Peterson and Novick (2007) and Peterson (2010) [(2;3) [Peterson and Novick, 2007; Peterson, 2010]. EOHSA values” for “EOHSA values”

[22] = tested on: 12R5-1; assay: as above; settings: Homo sapiens; 12R5-1, melanoma, Compound A resistant clone; BRAF_V600E, KRAS WT; mean ± std; read-out: IC50 Single Agent
Description: as §7, §8, §3, §4, §5
as §6, with “The combination effects on the response scale were quantified by Excess Over Highest Single Agent (EOHSA) based on the concept of nonlinear blending as described in detail by Peterson and Novick (2007) and Peterson (2010) [(2;3) [Peterson and Novick, 2007; Peterson, 2010]. EOHSA values” for “EOHSA values”

[23] = tested on: 16R5-2; assay: as above; settings: Homo sapiens; 16R5-2, melanoma, Compound A resistant clone; BRAF_V600E, KRAS WT; mean ± std; read-out: IC50 Single Agent
Description: as §7, §8, §3, §4, §5
as §6, with “The combination effects on the response scale were quantified by Excess Over Highest Single Agent (EOHSA) based on the concept of nonlinear blending as described in detail by Peterson and Novick (2007) and Peterson (2010) [(2;3) [Peterson and Novick, 2007; Peterson, 2010]. EOHSA values” for “EOHSA values”

[24] = tested on: 12R8-1; assay: as above; settings: Homo sapiens; 12R8-1, melanoma, Compound A resistant clone; BRAF_V600E, KRAS WT; mean ± std; read-out: IC50 Single Agent
Description: as §7, §8, §3, §4, §5
as §6, with “The combination effects on the response scale were quantified by Excess Over Highest Single Agent (EOHSA) based on the concept of nonlinear blending as described in detail by Peterson and Novick (2007) and Peterson (2010) [(2;3) [Peterson and Novick, 2007; Peterson, 2010]. EOHSA values” for “EOHSA values”

[25] = tested on: HT29; assay: as above; settings: Homo sapiens, HT-29; HT29, colon; BRAF V600E, KRAS WT, PIK3CA P449T; mean ± std; read-out: IC50 Single Agent
Description: as §7, §8, §3, §4, §5
as §6, with “The combination effects on the response scale were quantified by Excess Over Highest Single Agent (EOHSA) based on the concept of nonlinear blending as described in detail by Peterson and Novick (2007) and Peterson (2010) [(2;3) [Peterson and Novick, 2007; Peterson, 2010]. EOHSA values” for “EOHSA values”

[26] = tested on: SW1417; assay: as above; settings: Homo sapiens; SW1417, colon; BRAF V600E, KRAS WT, PIK3CA WT; mean ± std; read-out: IC50 Single Agent
Description: as §7, §8, §3, §4, §5
as §6, with “The combination effects on the response scale were quantified by Excess Over Highest Single Agent (EOHSA) based on the concept of nonlinear blending as described in detail by Peterson and Novick (2007) and Peterson (2010) [(2;3) [Peterson and Novick, 2007; Peterson, 2010]. EOHSA values” for “EOHSA values”

CC(C)(C)c1nc(-c2cccc(NS(=O)(=O)c3c(F)cccc3F)c2F)c(-c2ccnc(N)n2)s1 [Compound A, N-{3-[5-(2-Amino-4-pyrimidinyl)-2-(1,1-dimethylethyl)-1,3-thiazol-4-yl]-2-fluorophenyl}-2,6-difluorobenzenesulfonamide]
IC50 [1]: 0.018 to 3.32 µM | IC50 [2]: > 5 µM | IC50 [3]: > 10 µM | IC50 [4]: > 10 µM | IC50 [5]: > 10 µM | IC50 [6]: > 10 µM | IC50 [7]: > 10 µM | IC50 [8]: > 10 µM | IC50 [9]: 0.063 µM | IC50 [10]: > 10 µM | IC50 [11]: > 10 µM | IC50 [12]: > 10 µM | IC50 [13]: > 10 µM | IC50 [14]: > 10 µM | IC50 [15]: > 10 µM | IC50 [16]: 3.14 ± 3.47 µM | IC50 [17]: 5.44 ± 7.69 µM | IC50 [18]: > 10 µM | IC50 [19]: 0.018 ± 0.003 µM | IC50 [20]: > 10 µM | IC50 [21]: > 10 µM | IC50 [22]: > 10 µM | IC50 [23]: > 10 µM | IC50 [24]: > 10 µM | IC50 [25]: 0.028 ± 0.007 µM | IC50 [26]: 0.101 ± 0.031 µM
